Laboratory results: ChEMBL document CHEMBL2074452, “Mercapturic acids (N-acetylcysteine S-conjugates) as endogenous substrates for the renal organic anion transporter-1” (Mol Pharmacol, 2001)

How the values were obtained:
[1] = biological target: T1, Solute carrier family 22 member 6 (Rattus norvegicus, UniProt O35956); assay: TP_TRANSPORTER: inhibition of PAH uptake (PAH: 20 uM, PentaCl-butadiene-NAC: 500 uM) in Xenopus laevis oocytes; format: functional, cell-based; conditions: oocyte
T1 sequence (O35956 whole entry): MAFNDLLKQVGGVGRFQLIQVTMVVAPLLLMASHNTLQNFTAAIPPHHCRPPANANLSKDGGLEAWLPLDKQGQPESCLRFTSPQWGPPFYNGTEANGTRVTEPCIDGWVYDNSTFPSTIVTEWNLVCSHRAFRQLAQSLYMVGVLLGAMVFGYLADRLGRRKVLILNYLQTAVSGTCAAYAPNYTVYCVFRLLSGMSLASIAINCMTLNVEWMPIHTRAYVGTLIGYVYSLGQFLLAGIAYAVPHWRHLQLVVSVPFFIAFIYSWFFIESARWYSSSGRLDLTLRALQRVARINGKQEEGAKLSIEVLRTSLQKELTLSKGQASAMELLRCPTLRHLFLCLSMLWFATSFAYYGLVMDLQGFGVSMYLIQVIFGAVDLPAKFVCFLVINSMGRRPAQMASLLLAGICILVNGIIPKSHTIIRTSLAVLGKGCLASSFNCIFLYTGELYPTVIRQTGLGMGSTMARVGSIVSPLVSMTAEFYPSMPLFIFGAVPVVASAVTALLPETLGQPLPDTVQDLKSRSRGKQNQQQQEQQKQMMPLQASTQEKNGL

[2] = biological target: T1, Solute carrier family 22 member 6; assay: TP_TRANSPORTER: inhibition of DNP-NAC uptake (DNP-NAC: 1 uM, PentaCl-butadiene-NAC: 1000 uM) in Xenopus laevis oocytes; format: functional, cell-based; conditions: oocyte
[3] = biological target: T1, Solute carrier family 22 member 6; assay: TP_TRANSPORTER: inhibition of DNP-NAC uptake (DNP-NAC: 1 uM, NAC: 1000 uM) in Xenopus laevis oocytes; format: functional, cell-based; conditions: oocyte
[4] = biological target: T1, Solute carrier family 22 member 6; assay: TP_TRANSPORTER: inhibition of PAH uptake in Xenopus laevis oocytes; format: functional, cell-based, Oocyte
[5] = biological target: T1, Solute carrier family 22 member 6; assay: TP_TRANSPORTER: inhibition of PAH uptake (PAH: 20 uM, Allyl-NAC: 1000 uM) in Xenopus laevis oocytes; format: functional, cell-based; conditions: oocyte
[6] = biological target: T1, Solute carrier family 22 member 6; assay: TP_TRANSPORTER: inhibition of DNP-NAC uptake (DNP-NAC: 1 uM, Allyl-NAC: 1000 uM) in Xenopus laevis oocytes; format: functional, cell-based; conditions: oocyte
[7] = biological target: T1, Solute carrier family 22 member 6; assay: TP_TRANSPORTER: inhibition of PAH uptake (PAH: 20 uM, diCl-vinyl-NAC: 1000 uM) in Xenopus laevis oocytes; format: functional, cell-based; conditions: oocyte
[8] = biological target: T1, Solute carrier family 22 member 6; assay: TP_TRANSPORTER: inhibition of DNP-NAC uptake (DNP-NAC: 1 uM, diCl-vinyl-NAC: 1000 uM) in Xenopus laevis oocytes; format: functional, cell-based; conditions: oocyte
[9] = biological target: T1, Solute carrier family 22 member 6; assay: TP_TRANSPORTER: inhibition of DNP-NAC uptake (DNP-NAC: 1 uM, Dodecyl-NAC: 1000 uM) in Xenopus laevis oocytes; format: functional, cell-based; conditions: oocyte
[10] = biological target: T1, Solute carrier family 22 member 6; assay: TP_TRANSPORTER: inhibition of PAH uptake (PAH: 20 uM, Dodecyl-NAC: 500 uM) in Xenopus laevis oocytes; format: functional, cell-based; conditions: oocyte
[11] = biological target: T1, Solute carrier family 22 member 6; assay: TP_TRANSPORTER: inhibition of DNP-NAC uptake (DNP-NAC: 1 uM, Benzyl-NAC: 1000 uM) in Xenopus laevis oocytes; format: functional, cell-based; conditions: oocyte
[12] = biological target: T1, Solute carrier family 22 member 6; assay: TP_TRANSPORTER: inhibition of DNP-NAC uptake (DNP-NAC: 1 uM, Propanol-NAC: 1000 uM) in Xenopus laevis oocytes; format: functional, cell-based; conditions: oocyte
[13] = biological target: T1, Solute carrier family 22 member 6; assay: TP_TRANSPORTER: inhibition of PAH uptake (PAH: 20 uM, Propanol-NAC: 1000 uM) in Xenopus laevis oocytes; format: functional, cell-based; conditions: oocyte
[14] = biological target: T1, Solute carrier family 22 member 6; assay: TP_TRANSPORTER: inhibition of PAH uptake (PAH: 20 uM, 3-Phenyl-propyl-NAC: 1000 uM) in Xenopus laevis oocytes; format: functional, cell-based; conditions: oocyte
[15] = biological target: T1, Solute carrier family 22 member 6; assay: TP_TRANSPORTER: inhibition of DNP-NAC uptake (DNP-NAC: 1 uM, 3-Phenyl-propyl-NAC: 1000 uM) in Xenopus laevis oocytes; format: functional, cell-based; conditions: oocyte
[16] = biological target: T1, Solute carrier family 22 member 6; assay: TP_TRANSPORTER: inhibition of DNP-NAC uptake (DNP-NAC: 1 uM, Propyl-NAC: 1000 uM) in Xenopus laevis oocytes; format: functional, cell-based; conditions: oocyte
[17] = biological target: T1, Solute carrier family 22 member 6; assay: TP_TRANSPORTER: inhibition of PAH uptake (PAH: 20 uM, Propyl-NAC: 1000 uM) in Xenopus laevis oocytes; format: functional, cell-based; conditions: oocyte
[18] = biological target: T1, Solute carrier family 22 member 6; assay: TP_TRANSPORTER: inhibition of PAH uptake (PAH: 20 uM, Butyl-NAC: 500 uM) in Xenopus laevis oocytes; format: functional, cell-based; conditions: oocyte
[19] = biological target: T1, Solute carrier family 22 member 6; assay: TP_TRANSPORTER: inhibition of DNP-NAC uptake (DNP-NAC: 1 uM, Butyl-NAC: 1000 uM) in Xenopus laevis oocytes; format: functional, cell-based; conditions: oocyte
[20] = biological target: T1, Solute carrier family 22 member 6; assay: TP_TRANSPORTER: inhibition of PAH uptake (PAH: 20 uM, N-acetylnorleucine: 1000 uM) in Xenopus laevis oocytes; format: functional, cell-based; conditions: oocyte
[21] = biological target: T1, Solute carrier family 22 member 6; assay: TP_TRANSPORTER: inhibition of DNP-NAC uptake (DNP-NAC: 1 uM, N-acetylnorleucine: 1000 uM) in Xenopus laevis oocytes; format: functional, cell-based; conditions: oocyte
[22] = substrate: CC(=O)N[C@@H](CSc1ccc([N+](=O)[O-])cc1[N+](=O)[O-])C(=O)O; assay: TP_TRANSPORTER: uptake in Xenopus laevis oocytes; format: functional, cell-based, Oocyte

`CC(=O)NC(CS/C(Cl)=C(\Cl)C(Cl)=C(Cl)Cl)C(=O)O` (stereo not given) was tested, and the Activity [1] was “inhibitor [(at a rough estimate) 15 % of control]” and the Activity [2] was “inhibitor [(at a rough estimate) <5 % of control]”.

In the case of `CC(=O)N[C@@H](CS)C(=O)O` [ACETYLCYSTEINE], the Activity [3] is reported as “inhibitor [(at a rough estimate) 60 % of control]”.

In the case of `CCSC[C@@H](NC(C)=O)C(=O)O`, the Ki [4] is reported as 1100 nM.

`C=CCSCC(NC(C)=O)C(=O)O` (stereo not given) was tested, and the Activity [5] was “inhibitor [(at a rough estimate) 10 % of control]” and the Activity [6] was “inhibitor [(at a rough estimate) 15 % of control]”.

`CC(=O)N[C@@H](CSc1ccc([N+](=O)[O-])cc1[N+](=O)[O-])C(=O)O` gave a Ki [4] of 1900 nM.

With `CC(=O)N[C@@H](CS/C(Cl)=C\Cl)C(=O)O` the Activity [7] was “inhibitor [(at a rough estimate) 5 % of control]” and the Activity [8] was “inhibitor [(at a rough estimate) 25 % of control]”.

`CCCCCCCCCCCCSC[C@@H](NC(C)=O)C(=O)O` was tested, and the Activity [9] was “inhibitor [(at a rough estimate) <5 % of control]” and the Activity [10] was “inhibitor [(at a rough estimate) 15 % of control]”.

`CCCCC/C=C\C\C=C/C=C/C=C/[C@@H](SC[C@H](NC(C)=O)C(=O)O)[C@@H](O)CCCC(=O)O` gave a Ki [4] of 9000 nM.

`COC(=O)[C@@H](CSCc1ccccc1)NC(C)=O` was tested, and the Ki [4] was 400 nM and the Activity [11] was “inhibitor [(at a rough estimate) 30 % of control]”.

In the case of `CC(=O)NC(CSCCCO)C(=O)O` (stereo not given), the Activity [12] is reported as “inhibitor [(at a rough estimate) 30 % of control]” and the Activity [13] is reported as “inhibitor [(at a rough estimate) 5 % of control]”.

With `CC(=O)NC(CSCCCc1ccccc1)C(=O)O` (stereo not given) the Activity [14] was “inhibitor [(at a rough estimate) 5 % of control]” and the Activity [15] was “inhibitor [(at a rough estimate) 10 % of control]”.

For `CCCCSCC(NC(C)=O)C(=O)O` (stereo not given), the Activity [16] was “inhibitor [(at a rough estimate) 30 % of control]”, the Activity [17] was “inhibitor [(at a rough estimate) 10 % of control]” and the Activity [18] was “inhibitor [(at a rough estimate) 5 % of control]”. For the same molecule, the Activity [19] was “inhibitor [(at a rough estimate) 5 % of control]”.

For `CCCC[C@H](NC(C)=O)C(=O)O`, the Activity [20] was “inhibitor [(at a rough estimate) 15 % of control]” and the Activity [21] was “inhibitor [(at a rough estimate) 35 % of control]”.

B1: Solute carrier family 22 member 6 (Rattus norvegicus) (protein)
chain: T1 sequence (O35956 whole entry)
B1 showed a Km [22] of 2 µM.
